Experimental data: patent US5456908A, “Polyamine-polyamine and polyamine-protein transport inhibitor conjugates and their use as pharmaceuticals and in research relating to polyamine transport” (priority 1994, dated 1995)
Read-outs that look alike come from different tables or passages of the source.

Assays:
[1] = system: cultured pulmonary artery smooth muscle cells; test: 14C-polyamine uptake in cultured pulmonary artery smooth muscle cells; format: cell-based, bovine
Description: After this 30 minute period the cell-associated radioactivity was then measured to determine the uptake of polyamine by the cell culture.
Cell associated radioactivity was then measured.

[2] = system: R7 cells (MDR-positive variant of K567); test: Cytotoxicity, R7 leukemia cells; conditions: DFMO at 1 mM concentration; MDR-positive variant of K562
[3] = system: DX5 human uterine sarcoma cells (MDR-positive); test: MTT cytotoxicity assay, DX5; conditions: for IC50: Homo sapiens
Description: (§4) Cytotoxicity was assessed using the MTT assay in MES-SA and DX5 uterine sarcoma cell lines after a 24 hours exposure to ascending concentrations of the putrescine polymeric conjugates (poly-PUT conjugates) or its vehicle.
(§5) Complimentary experiments were conducted to determine whether the polyamine uptake inhibitors differentially affected the cytotoxicity and cellular uptake of vinblastine in MDR-negative and MDR-positive uterine sarcoma cells. […] The MTT assay was used to quantify the IC50 for vinblastine cytotoxicity in MES-SA and DX5 cells in the presence and absence of treatment with 100 μM poly-PUT. The calculation of cytotoxicity in these experiments accounted for the lethality associated with use of the conjugate alone.

[4] = system: DX5 human uterine sarcoma cells (MDR-positive); test: Cellular content of MDR substrates (vinblastine, Taxol), DX5; format: cell-based; conditions: DFMO (1 mM)
Description: Complimentary experiments were conducted to determine whether the polyamine uptake inhibitors differentially affected the cytotoxicity and cellular uptake of vinblastine in MDR-negative and MDR-positive uterine sarcoma cells.

[5] = system: K562/R7 human cancer cells; test: Cellular polyamine content by HPLC, K562/R7; format: cell-based; conditions: DFMO 1 mM, Poly-SPM 20 μM
Description: (§1) To determine if the cytotoxicity and inhibition of polyamine transport evoked by the polyamine conjugates was,associated with depletion of cell polyamine contents, additional experiments were conducted which used HPLC to measure contents of PUT, SPD, and SPM in human uterine sarcoma and leukemia cells in the presence of poly-SPM, DFMO, and combined treatment with poly-SPM and DFMO. The latter combination was tested to determine if blockade of both transport and synthesis would promote greater decreases in polyamine content than either intervention alone. […] Further studies are planned to obtain further information regarding interactions between these pathways and their suitabilities as pharmacologic targets.

[6] = system: DX5 human cancer cells; test: Cellular polyamine content by HPLC, DX5; format: cell-based; conditions: DFMO 1 mM, Poly-SPM 20 μM
Description: as §1

[7] = system: MES-SA human cancer cells; test: Cellular polyamine content by HPLC, MES-SA; format: cell-based; conditions: DFMO 1 mM, Poly-SPM 20 μM
Description: as §1

[8] = system: cultured pulmonary artery smooth muscle cells treated with DFMO; test: 14C-polyamine uptake in DFMO-treated pulmonary artery smooth muscle cells; conditions: Bos taurus, 24 h, read-out: increase of polyamine uptake relative to control cells
Description: DFMO treatment consisted of the addition of 1 mM of DFMO to the cultures followed by a 24 hour incubation period.
After DFMO treatment and incubation, the respective conjugates were added in amounts ranging from about 0 to 20 μM simultaneously with 3 μM of a specific ^14 C-polyamine and the cells allowed to incubate for 30 minutes. After incubation, the content of cell associated radioactivity was determined.

[9] = system: MES-SA human uterine sarcoma cells; test: Cellular content of MDR substrates (vinblastine, Taxol), MES-SA; format: cell-based; conditions: DFMO (1 mM)
[10] = system: K567 Human leukemia cells; test: Cytotoxicity, K567 leukemia cells; conditions: DFMO at 1 mM concentration; printed K562
[11] = system: cultured pulmonary artery smooth muscle cells; test: Hypoxia-induced fibronectin synthesis; format: cell-based, bovine
Excerpt: This experiment was effected because hypoxic pulmonary hypertension is accompanied by the deposition of large quantities of fibronectin around pulmonary arteries. Therefore, there is some belief by researchers, including the present inventors, that the increased deposition of this protein may be an important cause of the sustained elevation in pulmonary arterial blood pressure. Also, hypoxia seems to cause pulmonary hypertension by a mechanism related to increased polyamine transport rather than increased de novo polyamine synthesis.

[12] = system: MES-SA human uterine sarcoma cells; test: MTT cytotoxicity assay, MES-SA
Description: as §4, §5

[13] = system: DX5 human uterine sarcoma cells (MDR-positive); test: 14C-polyamine uptake, DX5; format: cell-based; conditions: DFMO (1 mM), 24 hours
Description: (§2) Additional studies were conducted to determine whether MES-SA and DX5 cell lines express a polyamine transport system, and, if so, whether this system(s) was inhibited by the poly-PUT and poly-SPM conjugate. […] In the current studies, ^14 C-SPD was added in concentrations of 3 μM and cells were incubated for 30 minutes at selected temperatures (4° and 37° C). The cells were rinsed with Hanks buffer, digested for 1 hour in 1N NaOH, and cell-associated radioactivity was determined. ^14 C-SPD uptake rate was normalized to protein content. Specific, carrier-mediated polyamine uptake was […] determined at […].
(§3) In many cells, DFMO increases polyamine transport. This is believed to be a compensatory mechanism that protects these cells from polyamine depletion. […] We therefore examined the impact of DFMO on polyamine transport rate and on vinblastine accumulation and cytotoxicity in MES-SA and DX5 cells.

[14] = system: non-mutant polyamine transport L1210 cells; conditions: DFMO treatment; Ask et al.; cited from earlier work
[15] = system: MES-SA human uterine sarcoma cells; test: 14C-polyamine uptake, MES-SA; format: cell-based; conditions: DFMO (1 mM), 24 hours
Description: as §2, §3

[16] = system: K562 human cancer cells; test: Cellular polyamine content by HPLC, K562; format: cell-based; conditions: DFMO 1 mM, Poly-SPM 20 μM
Description: as §1

[17] = system: L1210-MGBGr leukemic cell line deficient in polyamine transport; conditions: polyamine synthesis blocked by DFMO; Ask et al.; cited from earlier work
[18] = system: DX5 human uterine sarcoma cells (MDR-positive)
Description: as §4, §5

[19] = system: MES-SA human uterine sarcoma cells
Description: as §4, §5

[20] = conjugate 0-20 μM with 3 μM 14C-polyamine, 30 minutes

Molecule: Spd-BSA: conjugate between bovine serum albumin and spermidine using glutaraldehyde as a coupling agent
- uptake of 14C-putrescine [1, 20]: inhibited
- uptake of 14C-spermidine [1, 20]: inhibited

Molecule: COc1ccc(CCN(C)CCCC(C#N)(c2ccc(OC)c(OC)c2)C(C)C)cc1OC (stereo not drawn) [verapamil]
- suppression of polyamine transport ([1]; agents known to inhibit the MDR, data not shown, 30 min): 50-75%

Molecule: NCCCC(N)(C(=O)O)C(F)F (stereo not drawn) [DFMO, α-difluoro-methylornithine]
- toxicity to cells [2]: not toxic
- toxicity to cells ([3]; DFMO at 1 mM concentration, MDR-positive variant of MES-SA): not toxic
- effect of DFMO treatment on sensitivity to vinblastine ([3]; DFMO treatment, vinblastine concentrations up to 5 μM): complete resistance
- 3H-Vinblastine Content [4]: 195 ± 8 pmoles/mg protein
- Cellular Polyamine Content, SPD [5]: 15809 pmoles/mg protein
- Cellular Polyamine Content, SPM [5]: 15083 pmoles/mg protein
- Cellular Polyamine Content, SPD [6]: 4191 pmoles/mg protein
- Cellular Polyamine Content, SPM [6]: 6831 pmoles/mg protein
- Cellular Polyamine Content, SPD [7]: 6100 pmoles/mg protein
- Cellular Polyamine Content, SPM [7]: 8824 pmoles/mg protein
- activation at 1000 µM [8]: ~350%
- 3H-Vinblastine Content [9]: 840 ± 28 pmoles/mg protein
- toxicity to cells [10]: not toxic
- Fibronectin Synthesis ([11]; Hypoxic): 0.09 OD/mg protein
- Fibronectin Synthesis ([11]; Normoxic): 0.07 OD/mg protein
- toxicity to cells ([12]; DFMO at 1 mM concentration): not toxic
- effect of DFMO treatment on the IC50 value for vinblastine ([12]; DFMO treatment): failed to affect
- 14C-Polyamine uptake, PUT [13]: 1.1 ± 0.04 pmoles/min/mg protein
- 14C-Polyamine uptake, SPD [13]: 1.6 ± .08 pmoles/min/mg protein
- increase in survival time [14]: two
- 14C-Polyamine uptake, PUT [15]: 0.67 ± 0.01 pmoles/min/mg protein
- 14C-Polyamine uptake, SPD [15]: 7.3 ± .06 pmoles/min/mg protein
- Cellular Polyamine Content, SPD [16]: 15791 pmoles/mg protein
- Cellular Polyamine Content, SPM [16]: 17024 pmoles/mg protein
- cure rate [17]: 33%

Molecule: CC[C@]1(O)C[C@@H]2CN(CCc3c([nH]c4ccccc34)[C@@](C(=O)OC)(c3cc4c(cc3OC)N(C)[C@H]3[C@@](O)(C(=O)OC)[C@H](OC(C)=O)[C@]5(CC)C=CCN6CC[C@]43[C@@H]65)C2)C1 [Vinblastine]
- IC50 ([3]; read-out: IC50, vinblastine cytotoxicity): 600 nM
- IC50 ([3]; read-out: IC50 for vinblastine): 500 nM
- IC50 ([12]; Homo sapiens, MES-SA, read-out: IC50, vinblastine cytotoxicity): 5 nM
- IC50 [18]: 116 nM
- IC50 [19]: 7 nM
